Assay results as given in patent publication US20230365546A1, “5-SUBSTITUTED INDOLE 3-AMIDE DERIVATIVES, PREPARATION METHOD AND USE THEREOF” (ORIGIANT PHARMACEUTICAL CO., LTD, priority 2020, published 2023).

Assays:
HT-29 cells = experiment: Protection against programmed necrosis of HT-29 cells (TNF α/Smac mimetic/Z-VAD-FMK, CCK8); type: cell-based; conditions: Homo sapiens, TNF α/Smac mimetic/Z-VAD-FMK induced 24 h, CCK8, read-out: HT-29 (EC50)
Method: In vitro protection against programmed necrosis of HT-29 cells was conducted by ourselves.
DMEM medium was purchased from Gibco Inc., penicillin and streptomycin were purchased from HyClone Inc., TNF α was purchased from PeproTech Inc., Smac mimetic and Z-VAD-FMK were purchased from Selleck Inc., CCK8 was purchased from Medchem Express Inc.
HT-29 cells (colon cancer cells) were cultured in DMEM+10% FBS+Penicillin/Streptomycin medium. During the experiments, HT-29 cells in logarithmic growth phase were harvested, seeded in a 96-well plate at specific numbers per well (typically 8×10^3 cells/well of adherent cells) and cultured overnight in a 37° C., 5% CO2 cell culture incubator. The next day, the compounds to be tested were diluted with culture medium to the corresponding concentrations and added into the corresponding wells of a 96-well plate, with 3 replicate wells for each sample, and a Vehicle control group and a blank Control group containing only culture medium were set at the same time. […] The absorbance was measured at 495 nm wavelength using a microplate reader, and the protection rate of the drug on the cells necrosis was calculated according to the following formula:
Protection rate of cell necrosis=[(X−C0)/(C−C0)]×100%
Wherein, C, C0, and X represent the mean absorbance values of the Vehicle control group, Blank control group and Drug treatment group, respectively.

RIPK1 = RIPK1 (Homo sapiens (Human), UniProt Q13546); experiment: In vitro kinase assay (Eurofins Kinase Profiler), IC50; type: biochemical; conditions: 0.001-10 μM, read-out: RIPK 1 (IC50)
Chain of RIPK1 (Q13546 whole entry): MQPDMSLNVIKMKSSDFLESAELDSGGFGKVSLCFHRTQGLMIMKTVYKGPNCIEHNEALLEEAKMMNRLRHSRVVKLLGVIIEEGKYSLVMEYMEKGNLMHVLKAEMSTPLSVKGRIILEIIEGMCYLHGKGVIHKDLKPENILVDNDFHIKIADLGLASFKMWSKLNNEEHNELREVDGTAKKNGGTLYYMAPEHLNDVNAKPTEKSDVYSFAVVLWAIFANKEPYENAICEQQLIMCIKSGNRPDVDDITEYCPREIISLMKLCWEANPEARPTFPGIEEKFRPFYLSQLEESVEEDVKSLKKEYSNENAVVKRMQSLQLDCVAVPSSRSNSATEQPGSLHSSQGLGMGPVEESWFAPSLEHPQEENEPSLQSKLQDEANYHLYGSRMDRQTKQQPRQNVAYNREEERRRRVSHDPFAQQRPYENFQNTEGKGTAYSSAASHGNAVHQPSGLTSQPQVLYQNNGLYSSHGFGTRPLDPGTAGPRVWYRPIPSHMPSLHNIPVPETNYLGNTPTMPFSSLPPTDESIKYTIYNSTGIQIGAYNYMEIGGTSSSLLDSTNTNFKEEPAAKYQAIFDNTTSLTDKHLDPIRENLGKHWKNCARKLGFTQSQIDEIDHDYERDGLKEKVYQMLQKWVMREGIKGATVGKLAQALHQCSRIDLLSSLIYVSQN

Structure (SMILES) | EC50 (HT-29 cells) | IC50 (RIPK1)
CC(C)n1cc(C(=O)N[C@@H](C)c2cccc(F)c2)c2cc(-c3ccc4c(NC(=O)C5CC5)n[nH]c4c3)ccc21 [Compound 112] | 1 to 10 nM | 10 to 100 nM
CCCn1cc(C(=O)N[C@@H](C)c2cccc(F)c2)c2cc(-c3ccc4c(NC(=O)C5CC5)n[nH]c4c3)ccc21 [Compound 113] | 1 to 10 nM | 1 to 10 nM
CC(C)Cn1cc(C(=O)N[C@@H](C)c2cccc(F)c2)c2cc(-c3ccc4c(NC(=O)C5CC5)n[nH]c4c3)ccc21 [Compound 115] | 10 to 100 nM | 1 to 10 nM
COCCn1cc(C(=O)N[C@@H](C)c2cccc(F)c2)c2cc(-c3ccc4c(NC(=O)C5CC5)n[nH]c4c3)ccc21 [Compound 116] | 10 to 100 nM | 1 to 10 nM
C[C@H](NC(=O)c1cn(C)c2ccc(-c3ccc4c(NC(=O)C5CC5)c[nH]c4c3)cc12)c1cccc(F)c1 [Compound 117] | 10 to 100 nM | 10 to 100 nM
C[C@H](NC(=O)c1cn(C)c2ccc(-c3ccc4c(C(=O)NC5CC5)c[nH]c4c3)cc12)c1cccc(F)c1 [Compound 118] | 1 to 10 nM | 10 to 100 nM
C[C@H](NC(=O)c1cn(C)c2ccc(-c3ccc4c(C(=O)NCC(C)(C)C)c[nH]c4c3)cc12)c1cccc(F)c1 [Compound 119] | 1 to 10 nM | 1 to 10 nM
Cc1ccc([C@H](C)NC(=O)c2cn(C)c3ccc(-c4ccn5nc(NC(=O)C6CC6)nc5c4)cc23)cc1 [Compound 120] | < 1 nM | 1 to 10 nM
CC(C)C(=O)Nc1nc2cc(-c3ccc4c(c3)c(C(=O)N[C@H](C)c3ccccc3)cn4C)ccn2n1 [Compound 121] | 1 to 10 nM | 10 to 100 nM
CC(C)C(=O)Nc1nc2cc(-c3ccc4c(c3)c(C(=O)N[C@@H](C)c3ccccc3)cn4C)ccn2n1 [Compound 122] | < 1 nM | 1 to 10 nM
CC(C)C(=O)Nc1nc2cc(-c3ccc4c(c3)c(C(=O)NC(C)(C)c3ccccc3)cn4C)ccn2n1 [Compound 123] | 1 to 10 nM | 10 to 100 nM
CC(C)C(=O)Nc1nc2cc(-c3ccc4c(c3)c(C(=O)NC(C)c3cccc(F)c3)cn4C)ccn2n1 (centres unmarked) [Compound 124] | 1 to 10 nM | 10 to 100 nM
CC(C)C(=O)Nc1nc2cc(-c3ccc4c(c3)c(C(=O)N[C@H](C)c3cccc(F)c3)cn4C)ccn2n1 [Compound 125] | ≥ 1000 nM | ≥ 1000 nM
CC(C)C(=O)Nc1nc2cc(-c3ccc4c(c3)c(C(=O)N[C@H](C)c3cccc(Cl)c3)cn4C)ccn2n1 [Compound 126] | 10 to 100 nM | 10 to 100 nM
CC(C)C(=O)Nc1nc2cc(-c3ccc4c(c3)c(C(=O)N[C@@H](C)c3cccc(Cl)c3)cn4C)ccn2n1 [Compound 127] | < 1 nM | 10 to 100 nM
COc1cccc([C@@H](C)NC(=O)c2cn(C)c3ccc(-c4ccn5nc(NC(=O)C(C)C)nc5c4)cc23)c1 [Compound 128] | 100 to 1000 nM | 100 to 1000 nM
COc1cccc([C@H](C)NC(=O)c2cn(C)c3ccc(-c4ccn5nc(NC(=O)C(C)C)nc5c4)cc23)c1 [Compound 129] | 1 to 10 nM | 10 to 100 nM
CC(C)C(=O)Nc1nc2cc(-c3ccc4c(c3)c(C(=O)NC(C)c3ccc(F)cc3)cn4C)ccn2n1 (centres unmarked) [Compound 130] | 1 to 10 nM | 10 to 100 nM
CC(C)C(=O)Nc1nc2cc(-c3ccc4c(c3)c(C(=O)N[C@@H](C)c3ccc(F)cc3)cn4C)ccn2n1 [Compound 131] | < 1 nM | 10 to 100 nM
CC(C)C(=O)Nc1nc2cc(-c3ccc4c(c3)c(C(=O)N[C@H](C)c3ccc(F)cc3)cn4C)ccn2n1 [Compound 132] | 100 to 1000 nM | 100 to 1000 nM
COc1ccc([C@H](C)NC(=O)c2cn(C)c3ccc(-c4ccn5nc(NC(=O)C(C)C)nc5c4)cc23)cc1 [Compound 133] | < 1 nM | 10 to 100 nM
COc1ccc([C@@H](C)NC(=O)c2cn(C)c3ccc(-c4ccn5nc(NC(=O)C(C)C)nc5c4)cc23)cc1 [Compound 134] | 100 to 1000 nM | ≥ 1000 nM
CC(C)C(=O)Nc1nc2cc(-c3ccc4c(c3)c(C(=O)NC(C)c3ccccn3)cn4C)ccn2n1 (centres unmarked) [Compound 135] | 1 to 10 nM | 10 to 100 nM
CC(C)C(=O)Nc1nc2cc(-c3ccc4c(c3)c(C(=O)N[C@H](C)c3ccccn3)cn4C)ccn2n1 [Compound 136] | 10 to 100 nM | 100 to 1000 nM
CC(C)C(=O)Nc1nc2cc(-c3ccc4c(c3)c(C(=O)N[C@@H](C)c3ccccn3)cn4C)ccn2n1 [Compound 137] | < 1 nM | 10 to 100 nM

Structure (SMILES) | EC50 (HT-29 cells) | IC50 (RIPK1)
CC(C)C(=O)Nc1nc2cc(-c3ccc4c(c3)c(C(=O)NC(C)c3cccnc3)cn4C)ccn2n1 (centres unmarked) [Compound 138] | ≥ 1000 nM | ≥ 1000 nM
CC(C)C(=O)Nc1nc2cc(-c3ccc4c(c3)c(C(=O)NC(C)c3ccncc3)cn4C)ccn2n1 (centres unmarked) [Compound 139] | 10 to 100 nM | 10 to 100 nM
CC(C)C(=O)Nc1nc2cc(-c3ccc4c(c3)c(C(=O)N[C@H]3CCCc5ccccc53)cn4C)ccn2n1 [Compound 140] | 10 to 100 nM | 100 to 1000 nM
C[C@H](NC(=O)c1cn(C)c2ccc(-c3ccn4nc(N)nc4c3)cc12)c1cccc(F)c1 [Compound 141, (S)-5-(2-amino-[1,2,4]triazolo[1,5-a]pyridin-7-yl)-N-(1-(3-fluorophenyl)ethyl)-1-methyl-1H-indole-3-carboxamide] | 1 to 10 nM | 10 to 100 nM
C[C@H](NC(=O)c1cn(C)c2ccc(-c3ccn4nc(NC(=O)C5CC5(F)F)nc4c3)cc12)c1cccc(F)c1 (stereo partly drawn) [Compound 142, 5-(2-(2,2-difluorocyclopropane-1-carboxamido)-[1,2,4]triazolo[1,5-a]pyridin-7-yl)-N-((S)-1-(3-fluorophenyl)ethyl)-1-methyl-1H-indole-3-Carboxamide] | < 1 nM | 10 to 100 nM
C[C@H](NC(=O)c1cn(C)c2ccc(-c3ccn4nc(NC(=O)[C@H]5C[C@H]5F)nc4c3)cc12)c1cccc(F)c1 [Compound 143] | < 1 nM | 10 to 100 nM
C[C@H](NC(=O)c1cn(C)c2ccc(-c3ccn4nc(NC(=O)[C@@H]5C[C@@H]5F)nc4c3)cc12)c1cccc(F)c1 [Compound 144] | < 1 nM | 10 to 100 nM
C[C@H](NC(=O)c1cn(C)c2ccc(-c3ccn4nc(NC(=O)C5(F)CC5)nc4c3)cc12)c1cccc(F)c1 [Compound 145] | < 1 nM | 1 to 10 nM
C[C@H](NC(=O)c1cn(C)c2ccc(-c3ccn4nc(NC(=O)C5CC(F)(F)C5)nc4c3)cc12)c1cccc(F)c1 [Compound 146] | < 1 nM | 1 to 10 nM
C[C@H](NC(=O)c1cn(C)c2ccc(-c3ccn4nc(NC(=O)C5CCC(F)(F)CC5)nc4c3)cc12)c1cccc(F)c1 [Compound 147] | 1 to 10 nM | 10 to 100 nM
C[C@H](NC(=O)c1cn(C)c2ccc(-c3ccn4nc(NC(=O)C(C)(C)CCl)nc4c3)cc12)c1cccc(F)c1 [Compound 148] | ≥ 1000 nM | ≥ 1000 nM
CCn1cc(C(=O)N[C@@H](C)c2cccc(F)c2)c2cc(-c3ccn4nc(NC(=O)C5CC5)nc4c3)ccc21 [Compound 149] | < 1 nM | 10 to 100 nM
CC(C)n1cc(C(=O)N[C@@H](C)c2cccc(F)c2)c2cc(-c3ccn4nc(NC(=O)C5CC5)nc4c3)ccc21 [Compound 150] | 1 to 10 nM | 10 to 100 nM
CCCn1cc(C(=O)N[C@@H](C)c2cccc(F)c2)c2cc(-c3ccn4nc(NC(=O)C5CC5)nc4c3)ccc21 [Compound 151] | < 1 nM | 1 to 10 nM
CCCCn1cc(C(=O)N[C@@H](C)c2cccc(F)c2)c2cc(-c3ccn4nc(NC(=O)C5CC5)nc4c3)ccc21 [Compound 152] | 10 to 100 nM | 10 to 100 nM
CC(C)Cn1cc(C(=O)N[C@@H](C)c2cccc(F)c2)c2cc(-c3ccn4nc(NC(=O)C(C)C)nc4c3)ccc21 [Compound 153] | 100 to 1000 nM | 100 to 1000 nM
COCCn1cc(C(=O)N[C@@H](C)c2cccc(F)c2)c2cc(-c3ccn4nc(NC(=O)C5CC5)nc4c3)ccc21 [Compound 154] | 1 to 10 nM | 10 to 100 nM
C[C@H](NC(=O)c1cn(C)c2ccc(-c3ccc4nc(NC(=O)C5CC5)nn4c3)cc12)c1cccc(F)c1 [Compound 155] | 1 to 10 nM | 10 to 100 nM
C[C@@H](NC(=O)c1cn(C)c2ccc(-c3ccn4nc(NC(=O)C5CC5)nc4c3)cc12)c1cccc(F)c1 [Compound 156] | < 1 nM | 10 to 100 nM
CC(C)C(=O)Nc1nc2cc(-c3cnc4[nH]cc(C(=O)N[C@@H](C)c5cccc(F)c5)c4c3)ccn2n1 [Compound 157] | 1 to 10 nM | 10 to 100 nM
CC(C)C(=O)Nc1nc2cc(-c3cnc4c(c3)c(C(=O)N[C@@H](C)c3cccc(F)c3)cn4C)ccn2n1 [Compound 158] | < 1 nM | 1 to 10 nM
CC(C)C(=O)Nc1nc2cc(-c3cn(C)c4ncc(C(=O)N[C@@H](C)c5cccc(F)c5)cc34)ccn2n1 [Compound 159] | 100 to 1000 nM | 100 to 1000 nM
C[C@H](NC(=O)c1ccc2ncc(-c3ccn4nc(NC(=O)C5CC5)nc4c3)cc2c1)c1cccc(F)c1 [Compound 160] | 10 to 100 nM | 10 to 100 nM
C[C@H](NC(=O)c1cn(C)c2ccc(-c3ccn4nc(NC(=O)C5CCCO5)nc4c3)cc12)c1cccc(F)c1 (some centres unmarked) [Compound 161] | < 1 nM | 1 to 10 nM
